PubChem BioAssay AID1918954 (Molecular Pharmacology Branch, DTP, NCI, 2023)
pIC50: −log10 of the molar value. Values joined by “and” are separate entries in the source; they are usually repeats but may differ in a detail not shown here. Identical values can stand only once.

System: MDA-MB-468 complex spheroids with HUVEC/MSC, viability
Assay: Anticancer human tumor MDA-MB-468 cell line growth inhibition;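 note: spheroids exposed to agents for seven days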;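 for viability, T/C: 100% = DMSO vehicle control viability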
Conditions: for viability, T/C: stronger effect = lower value
In short: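 Multicellular complex spheroids of tumor cells with human endothelial cells (HUVEC) and mesenchymal stem cells; the LSD1 inhibitor iadademstat was combined with standard-of-care or investigational agents. Top concentration at or near clinical Cmax, half-log dilutions; final DMSO ≤0.25%.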

[1] = curve of first compound, second compound 0.1 µM
[2] = curve of first compound, second compound 0.316 µM
[3] = curve of first compound, second compound 1 µM
[4] = curve of first compound, second compound 3.16 µM
[5] = curve of first compound, second compound 10 µM

Q: Which results are given for Nc1ncn(C2CC(O)C(CO)S2)c(=O)n1 (configuration not stated) + NC1CCC(NC2CC2c2ccccc2)CC1?
A: pIC50 [1]: 7.05; pIC50 [2]: 7.04; pIC50 [3]: 7.09; pIC50 [4]: 7.18; pIC50 [5]: 7.94; viability, T/C (second compound 0.1 µM, first compound 0.000949 µM): 90.8%; viability, T/C (second compound 0.1 µM, first compound 0.003 µM): 95.7%; viability, T/C (second compound 0.1 µM, first compound 0.00949 µM): 76.8%; viability, T/C (second compound 0.1 µM, first compound 0.03 µM): 59.6%; viability, T/C (second compound 0.1 µM, first compound 0.0949 µM): 54.5%; viability, T/C (second compound 0.1 µM, first compound 0.3 µM): 35%; viability, T/C (second compound 0.316 µM, first compound 0.000949 µM): 89.7%; viability, T/C (second compound 0.316 µM, first compound 0.003 µM): 80%; viability, T/C (second compound 0.316 µM, first compound 0.00949 µM): 72.8%; viability, T/C (second compound 0.316 µM, first compound 0.03 µM): 71.3%; viability, T/C (second compound 0.316 µM, first compound 0.0949 µM): 45.6%; viability, T/C (second compound 0.316 µM, first compound 0.3 µM): 29.8%; viability, T/C (second compound 1 µM, first compound 0.000949 µM): 76.5%; viability, T/C (second compound 1 µM, first compound 0.003 µM): 87.8%; viability, T/C (second compound 1 µM, first compound 0.00949 µM): 76.1%; viability, T/C (second compound 1 µM, first compound 0.03 µM): 64.1%; viability, T/C (second compound 1 µM, first compound 0.0949 µM): 48.5%; viability, T/C (second compound 1 µM, first compound 0.3 µM): 38.1%; viability, T/C (second compound 3.16 µM, first compound 0.000949 µM): 81.2%; viability, T/C (second compound 3.16 µM, first compound 0.003 µM): 68.3%; viability, T/C (second compound 3.16 µM, first compound 0.00949 µM): 76%; viability, T/C (second compound 3.16 µM, first compound 0.03 µM): 67.5%; viability, T/C (second compound 3.16 µM, first compound 0.0949 µM): 41.8%; viability, T/C (second compound 3.16 µM, first compound 0.3 µM): 33.7%; viability, T/C (second compound 10 µM, first compound 0.000949 µM): 64.6%; viability, T/C (second compound 10 µM, first compound 0.003 µM): 53%; viability, T/C (second compound 10 µM, first compound 0.00949 µM): 54.5%; viability, T/C (second compound 10 µM, first compound 0.03 µM): 43%; viability, T/C (second compound 10 µM, first compound 0.0949 µM): 40%; viability, T/C (second compound 10 µM, first compound 0.3 µM): 31.1%

Q: With CCc1c2c(nc3ccc(O)cc13)-c1cc3c(c(=O)n1C2)COC(=O)[C@]3(O)CC as the compound, how does the viability, T/C (compound 0.000949 µM) read?
A: 7.07% and 5.35%

Q: And the viability, T/C (compound 0.003 µM)?
A: 7.03% and 4.74%

Q: What about the viability, T/C (compound 0.00949 µM) of the same compound?
A: 5.45% and 2.28%

Q: What about the viability, T/C (compound 0.03 µM) of the same compound?
A: 2.45% and 0.63%

Q: What about the viability, T/C (compound 0.0949 µM) of the same compound?
A: 2.17% and 0.53%

Q: What about the viability, T/C (compound 0.3 µM) of the same compound?
A: 2.73% and 0.59%

Q: And the pIC50 (curve of compound)?
A: > 9.02

Q: Which results are given for Nc1ncn(C2CC(O)C(CO)O2)c(=O)n1 (configuration not stated) + NC1CC1c1ccc(-c2cccc(O)c2)cc1?
A: pIC50 [1]: 7.79; pIC50 [2]: 7.71; pIC50 [3]: 7.75; pIC50 [4]: 7.82; pIC50 [5]: 8.04; viability, T/C (second compound 0.1 µM, first compound 0.00316 µM): 87.3%; viability, T/C (second compound 0.1 µM, first compound 0.01 µM): 66.9%; viability, T/C (second compound 0.1 µM, first compound 0.0316 µM): 27.2%; viability, T/C (second compound 0.1 µM, first compound 0.1 µM): 12.3%; viability, T/C (second compound 0.1 µM, first compound 0.316 µM): 9.59%; viability, T/C (second compound 0.1 µM, first compound 1 µM): 7.38%; viability, T/C (second compound 0.316 µM, first compound 0.00316 µM): 89.9%; viability, T/C (second compound 0.316 µM, first compound 0.01 µM): 74.8%; viability, T/C (second compound 0.316 µM, first compound 0.0316 µM): 31.2%; viability, T/C (second compound 0.316 µM, first compound 0.1 µM): 11.8%; viability, T/C (second compound 0.316 µM, first compound 0.316 µM): 8.68%; viability, T/C (second compound 0.316 µM, first compound 1 µM): 6.69%; viability, T/C (second compound 1 µM, first compound 0.00316 µM): 92.4%; viability, T/C (second compound 1 µM, first compound 0.01 µM): 72.2%; viability, T/C (second compound 1 µM, first compound 0.0316 µM): 27.8%; viability, T/C (second compound 1 µM, first compound 0.1 µM): 12.6%; viability, T/C (second compound 1 µM, first compound 0.316 µM): 7.79%; viability, T/C (second compound 1 µM, first compound 1 µM): 7.05%; viability, T/C (second compound 3.16 µM, first compound 0.00316 µM): 90.1%; viability, T/C (second compound 3.16 µM, first compound 0.01 µM): 64%; viability, T/C (second compound 3.16 µM, first compound 0.0316 µM): 24.4%; viability, T/C (second compound 3.16 µM, first compound 0.1 µM): 11.6%; viability, T/C (second compound 3.16 µM, first compound 0.316 µM): 8.23%; viability, T/C (second compound 3.16 µM, first compound 1 µM): 6.83%; viability, T/C (second compound 10 µM, first compound 0.00316 µM): 69%; viability, T/C (second compound 10 µM, first compound 0.01 µM): 48.1%; viability, T/C (second compound 10 µM, first compound 0.0316 µM): 25.1%; viability, T/C (second compound 10 µM, first compound 0.1 µM): 11.4%; viability, T/C (second compound 10 µM, first compound 0.316 µM): 7.65%; viability, T/C (second compound 10 µM, first compound 1 µM): 6.35%
